Results: US9884818B2, “Sulphamoylpyrrolamide derivatives and the use thereof as medicaments for the treatment of hepatitis B” (Janssen Sciences Ireland UC, priority 2013, dated 2018)

Columns and labels:
[1] = Cytotoxicity in HepG2 cells, Resazurin viability assay; conditions: human, HepG2 cells, HepG2 4 days CC50 (μM), incubated for 4 days, Resazurin assay
HBV [2] = assay: Anti-HBV activity, HepG2.117 inducibly HBV producing cell line (Tet-off), intracellular HBV DNA by realtime PCR; assay type: cell-based; conditions: Hepatitis B virus, HepG2.117, 72 h, HepG2.117 cells, 3 days of treatment, intracellular HBV DNA; read-out: HepG2 117 EC50
HBV [3] = assay: Anti-HBV activity, HepG2.2.15 stable transfected cell line, HBV DNA from secreted virions by realtime PCR; assay type: cell-based; conditions: HepG2.2.15 cells, 6 days of treatment, HBV DNA from secreted virions, read-out: HepG2 2.15 EC50
[4] = Hepatitis B virus, HepG2.2.15, 144 h

SMILES: Cc1c(S(=O)(=O)N[C@@H](C)C(F)(F)F)cn(C)c1C(=O)Nc1ccc(F)c(F)c1 [Compound 146, N-(3,4-Difluorophenyl)-1,3-dimethyl-4-{[(1S)-2,2,2-trifluoro-1-methylethyl]sulfamoyl}-1H-pyrrole-2-carboxamide]
- CC50 at 4 days [1]: > 25 µM
- EC50 (HBV [2]): 40 nM
- EC50 (HBV [3]; [4]): 70 nM

SMILES: Cn1cc(S(=O)(=O)NC2(C(F)(F)F)CC2)c(Cl)c1C(=O)Nc1ccc(F)c(C#N)c1 [Compound 271, 3-Chloro-N-(3-cyano-4-fluorophenyl)-1-methyl-4-{[1-(trifluoro-methyl)cyclopropyl]sulfamoyl}-1H-pyrrole-2-carboxamide]
- CC50 at 4 days [1]: > 25 µM
- EC50 (HBV [2]): 20 nM
- EC50 (HBV [3]; [4]): 9 nM

SMILES: Cn1cc(S(=O)(=O)NC(C)(C)C)c(Cl)c1C(=O)Nc1ccc(F)c(Cl)c1 [Compound 220, 4-(tert-Butylsulfamoyl)-3-chloro-N-(3-chloro-4-fluorophenyl)-1-methyl-1H-pyrrole-2-carboxamide]
- CC50 at 4 days [1]: > 25 µM
- EC50 (HBV [2]): 40 nM
- EC50 (HBV [3]; [4]): 100 nM

SMILES: C[C@@H](NS(=O)(=O)c1cn(C)c(C(=O)Nc2ccc(F)c(C#N)c2F)c1F)C(F)(F)F [Compound 181, N-(3-Cyano-2,4-difluorophenyl)-3-fluoro-1-methyl-4-{[(1R)-2,2,2-trifluoro-1-methylethyl]sulfamoyl}-1H-pyrrole-2-carboxamide]
- CC50 at 4 days [1]: > 25 µM
- EC50 (HBV [2]): 6 nM
- EC50 (HBV [3]; [4]): 8 nM

SMILES: CC(C)NS(=O)(=O)c1cn(C)c(C(=O)Nc2ccc(F)c(Cl)c2F)c1F [Compound 234, N-(3-Chloro-2,4-difluorophenyl)-3-fluoro-1-methyl-4-[(1-methyl-ethyl)sulfamoyl]-1H-pyrrole-2-carboxamide]
- CC50 at 4 days [1]: > 25 µM
- EC50 (HBV [2]): 30 nM
- EC50 (HBV [3]; [4]): 20 nM

SMILES: Cn1cc(S(=O)(=O)NC2(C)COC2)cc1C(=O)Nc1ccc(F)c(Br)c1 [Compound 81]
- CC50 at 4 days [1]: > 25 µM
- EC50 (HBV [2]): 50 nM
- EC50 (HBV [3]; [4]): 10 nM

SMILES: Cc1cc(NC(=O)c2c(C)c(S(=O)(=O)NC3(C)COC3)cn2C)ccc1F [Compound 90, N-(4-Fluoro-3-methylphenyl)-1,3-dimethyl-4-[(3-methyloxetan-3-yl)sulfamoyl]-1H-pyrrole-2-carboxamide]
- CC50 at 4 days [1]: > 25 µM
- EC50 (HBV [2]): 30 nM
- EC50 (HBV [3]; [4]): 50 nM

SMILES: C[C@@H](NS(=O)(=O)c1cn(C2CC2)c(C(=O)Nc2ccc(F)c(C#N)c2)c1Cl)C(F)(F)F [Compound 305, 3-chloro-N-(3-cyano-4-fluoro-phenyl)-1-cyclopropyl-4-[[(1R)-2,2,2-trifluoro-1-methyl-ethyl]sulfamoyl]pyrrole-2-carboxamide]
- CC50 at 4 days [1]: > 25 µM
- EC50 (HBV [2]): 350 nM
- EC50 (HBV [3]; [4]): 170 nM

SMILES: Cn1cc(S(=O)(=O)NC(C)(C)C)cc1C(=O)Nc1cc(F)cc(C#N)c1 [Compound 53, 4-(tert-butylsulfamoyl)-N-(3-cyano-5-fluoro-phenyl)-1-methyl-pyrrole-2-carboxamide]
- CC50 at 4 days [1]: > 25 µM
- EC50 (HBV [2]): 180 nM
- EC50 (HBV [3]; [4]): 260 nM

SMILES: Cn1cc(S(=O)(=O)NC2(C(N)=O)CC2)cc1C(=O)Nc1cc(F)c(F)c(Cl)c1 [Compound 114, 4-[(1-Carbamoylcyclopropyl)sulfamoyl]-N-(3-chloro-4,5-difluorophenyl)-1-methyl-1H-pyrrole-2-carboxamide]
- CC50 at 4 days [1]: > 25 µM
- EC50 (HBV [2]): 50 nM
- EC50 (HBV [3]; [4]): 100 nM

SMILES: C[C@@H](NS(=O)(=O)c1cn(C)c(C(=O)Nc2ccc(F)c(C(F)(F)F)c2)c1Cl)C(F)(F)F [Compound 274, 3-chloro-N-[4-fluoro-3-(trifluoromethyl)phenyl]-1-methyl-4-[[(1R)-2,2,2-trifluoro-1-methyl-ethyl]sulfamoyl]pyrrole-2-carboxamide]
- CC50 at 4 days [1]: 19.4 µM
- EC50 (HBV [2]): 40 nM
- EC50 (HBV [3]; [4]): 20 nM

SMILES: Cc1c(S(=O)(=O)NC2(C)COC2)cn(C)c1C(=O)Nc1ccc(F)c(Cl)c1 [Compound 149, N-(3-Chloro-4-fluorophenyl)-1,3-dimethyl-4-[(3-methyloxetan-3-yl)sulfamoyl]-1H-pyrrole-2-carboxamide]
- CC50 at 4 days [1]: > 25 µM
- EC50 (HBV [2]): 30 nM
- EC50 (HBV [3]; [4]): 40 nM

SMILES: C[C@@H](NS(=O)(=O)c1cn(C)c(C(=O)Nc2ccc(F)cc2C#N)c1Cl)C(F)(F)F [Compound 273, 3-chloro-N-(2-cyano-4-fluoro-phenyl)-1-methyl-4-[[(1R)-2,2,2-trifluoro-1-methyl-ethyl]sulfamoyl]pyrrole-2-carboxamide]
- CC50 at 4 days [1]: > 25 µM
- EC50 (HBV [2]): 700 nM
- EC50 (HBV [3]; [4]): 420 nM

SMILES: C[C@@H](NS(=O)(=O)c1cn(C)c(C(=O)Nc2ccc(F)c(C(F)F)c2F)c1Cl)C(F)(F)F [Compound 278, 3-chloro-N-[3-(difluoromethyl)-2,4-difluoro-phenyl]-1-methyl-4-[[(1R)-2,2,2-trifluoro-1-methyl-ethyl]sulfamoyl]pyrrole-2-carboxamide]
- CC50 at 4 days [1]: > 25 µM
- EC50 (HBV [2]): 10 nM
- EC50 (HBV [3]; [4]): 6 nM

SMILES: Cn1cc(S(=O)(=O)NC2(C)COC2)cc1C(=O)Nc1ccc(F)c(Cl)c1 [Compound 78, N-(3-Chloro-4-fluorophenyl)-1-methyl-4-[(3-methyloxetan-3-yl)sulfamoyl]-1H-pyrrole-2-carboxamide]
- CC50 at 4 days [1]: > 25 µM
- EC50 (HBV [2]): 30 nM
- EC50 (HBV [3]; [4]): 20 nM

SMILES: Cn1cc(S(=O)(=O)NC2CC(F)(F)C2)cc1C(=O)Nc1cc(F)c(F)c(Cl)c1 [Compound 164, N-(3-Chloro-4,5-difluorophenyl)-4-[(3,3-difluorocyclobutyl)sulfamoyl]-1-methyl-1H-pyrrole-2-carboxamide]
- CC50 at 4 days [1]: > 25 µM
- EC50 (HBV [2]): 130 nM
- EC50 (HBV [3]; [4]): 130 nM

SMILES: Cn1cc(S(=O)(=O)NC2CCCC2(F)F)cc1C(=O)Nc1ccc(F)c(Cl)c1F (single isomer, unassigned) [Compound 236a, N-(3-Chloro-2,4-difluorophenyl)-4-{[2,2-difluorocyclopentyl]sulfamoyl}-1-methyl-1H-pyrrole-2-carboxamide]
- CC50 at 4 days [1]: > 25 µM
- EC50 (HBV [2]): 50 nM
- EC50 (HBV [3]): 20 nM

SMILES: Cc1cc(NC(=O)c2cc(S(=O)(=O)NC3(C)COC3)cn2C)cc(C)c1F [Compound 80, N-(4-Fluoro-3,5-dimethylphenyl)-1-methyl-4-[(3-methyloxetan-3-yl)sulfamoyl]-1H-pyrrole-2-carboxamide]
- CC50 at 4 days [1]: > 25 µM
- EC50 (HBV [2]): 90 nM
- EC50 (HBV [3]; [4]): 40 nM

SMILES: C[C@@H](NS(=O)(=O)c1cn(C)c(C(=O)Nc2ccc(F)c(C(F)F)c2)c1Cl)C(F)(F)F [Compound 279, 3-chloro-N-[3-(difluoromethyl)-4-fluoro-phenyl]-1-methyl-4-[[(1R)-2,2,2-trifluoro-1-methyl-ethyl]sulfamoyl]pyrrole-2-carboxamide]
- CC50 at 4 days [1]: > 25 µM
- EC50 (HBV [2]): 5 nM
- EC50 (HBV [3]; [4]): < 4 nM

SMILES: Cn1cc(S(=O)(=O)NC2(C)COC2)cc1C(=O)Nc1cc(F)c(F)c(Br)c1 [Compound 48, N-(3-bromo-4,5-difluoro-phenyl)-1-methyl-4-[(3-methyloxetan-3-yl)-sulfamoyl]pyrrole-2-carboxamide]
- CC50 at 4 days [1]: > 25 µM
- EC50 (HBV [2]): 60 nM
- EC50 (HBV [3]; [4]): 50 nM

SMILES: Cn1cc(S(=O)(=O)NC(C)(C)C(F)(F)F)cc1C(=O)Nc1cc(F)c(F)c(Cl)c1 [Compound 96, N-(3-Chloro-4,5-difluorophenyl)-1-methyl-4-[(2,2,2-trifluoro-1,1-dimethylethyl)sulfamoyl]-1H-pyrrole-2-carboxamide]
- CC50 at 4 days [1]: 23.7 µM
- EC50 (HBV [2]): 30 nM
- EC50 (HBV [3]; [4]): 10 nM

SMILES: Cn1cc(S(=O)(=O)NC(C)(C)C)c(F)c1C(=O)Nc1ccc(F)c(F)c1F [Compound 213, 4-(tert-Butylsulfamoyl)-3-fluoro-1-methyl-N-(2,3,4-trifluorophenyl)-1H-pyrrole-2-carboxamide]
- CC50 at 4 days [1]: > 25 µM
- EC50 (HBV [2]): 310 nM
- EC50 (HBV [3]; [4]): 210 nM

SMILES: Cc1c(F)ccc(NC(=O)c2cc(S(=O)(=O)N[C@@H](C)C(F)(F)F)cn2C)c1F [Compound 119, N-(2,4-Difluoro-3-methylphenyl)-1-methyl-4-{[(1S)-2,2,2-trifluoro-1-methylethyl]sulfamoyl}-1H-pyrrole-2-carboxamide]
- CC50 at 4 days [1]: > 25 µM
- EC50 (HBV [2]): 10 nM
- EC50 (HBV [3]; [4]): 30 nM

SMILES: Cn1cc(S(=O)(=O)NC2(C)COC2)cc1C(=O)Nc1ccc(F)c(C(F)F)c1 [Compound 39, N-[3-(difluoromethyl)-4-fluoro-phenyl]-1-methyl-4-[(3-methyloxetan-3-yl)sulfamoyl]pyrrole-2-carboxamide]
- CC50 at 4 days [1]: > 25 µM
- EC50 (HBV [2]): 40 nM
- EC50 (HBV [3]; [4]): 50 nM

SMILES: Cc1cc(NC(=O)c2cc(S(=O)(=O)NCC3(C)COC3)cn2C)ccc1F [Compound 7, N-(4-fluoro-3-methyl-phenyl)-1-methyl-4-[(3-methyloxetan-3-yl)methylsulfamoyl]pyrrole-2-carboxamide]
- CC50 at 4 days [1]: > 25 µM
- EC50 (HBV [2]): 100 nM
- EC50 (HBV [3]; [4]): 120 nM

SMILES: Cn1cc(S(=O)(=O)NC(C)(C)C)cc1C(=O)Nc1ccc(F)c(Cl)c1F [Compound 194, 4-(tert-Butylsulfamoyl)-N-(3-chloro-2,4-difluorophenyl)-1-methyl-1H-pyrrole-2-carboxamide]
- CC50 at 4 days [1]: > 25 µM
- EC50 (HBV [2]): 50 nM
- EC50 (HBV [3]; [4]): 90 nM

SMILES: Cc1cc(F)cc(NC(=O)c2cc(S(=O)(=O)N[C@H]3CCOC3)cn2C)c1 [Compound 32, N-(3-fluoro-5-methyl-phenyl)-1-methyl-4-[[(3S)-tetrahydrofuran-3-yl]-sulfamoyl]pyrrole-2-carboxamide]
- CC50 at 4 days [1]: > 25 µM
- EC50 (HBV [2]): 340 nM
- EC50 (HBV [3]; [4]): 180 nM

SMILES: Cn1cc(S(=O)(=O)NCC(F)F)cc1C(=O)Nc1cc(F)c(F)c(Cl)c1 [Compound 130, N-(3-Chloro-4,5-difluorophenyl)-4-[(2,2-difluoroethyl)sulfamoyl]-1-methyl-1H-pyrrole-2-carboxamide]
- CC50 at 4 days [1]: > 25 µM
- EC50 (HBV [2]): 150 nM
- EC50 (HBV [3]; [4]): 90 nM
